# Legend:
# Ndc80c^dwarf [1] = assay: Fluorescence polarization competition, reporter Bodipy-FL Mps1(137–171); type: binding, S. cerevisiae
# Description: We measured by fluorescence polarization the affinity of Ndc80^dwarf, a shortened version of Ndc80c[51], for a peptide comprising Mps1 residues 137–171, plus a C-terminal cysteine for labeling. We labeled the peptide with the Bodipy fluorophore and determined fluorescence anisotropy as a function of Ndc80c^dwarf concentration (Figure 3A). We then used unlabeled wild-type and mutant peptides in a competition format, at a fixed Ndc80c^dwarf concentration (Figures 3B,C). The mutant peptides corresponded to mutations characterized in one of the accompanying papers. […] Mutating either the basic residues or the hydrophobic residues in the first part of the consensus motif or the conserved arginine at the end of the second part lowered affinity (raised the Ki) by roughly two logs; mutating both the final arginine and the hydrophobic residues eliminated any detectable competition.
# (§1) Figure 3. Fluorescence polarization measurements of Ndc80c^dwarf binding peptides from the N-terminal extensions of Mps1 and Ipl1. (A) Polarization of fluorescence from 20 nM Bodipy-FL Mps1(137–171) (Mps1 residues 137–171 plus a C-terminal cysteine modified with Bodipy-FL -- see Methods) and Bodipy-FL Ipl1 (26–39;45–59) as a function of Ndc80c^dwarf concentration. (B) Competition binding experiment: unlabeled competitor peptides (see figure annotation) were added in twofold serial dilutions to Bodipy-FL Mps1(137–171) and Ndc80c^dwarf at final concentrations of 20 nM and 500 nM respectively. Loss of polarization indicates displacement of bound Bodipy-FL Mps1(137–171) by the competitor. (C) As in (B), with competitor Mps1(137–171) peptides containing mutations that reduce affinity for Ndc80c[40]. (D) Polarization of fluorescence from 20 nM Bodipy-FL Mps1(137–171) as a function of the concentration of Ndc80c^dwarf bearing mutations in Nuf2 that interfere with its Mps1 interaction in cells. (E) As in (B), but with 20 nM Bodipy-FL Ipl1 (26–39;45–59) as the fluorescent reporter and 27μM Ndc80c^dwarf. […] For the Ipl1 peptide, the second copy of the motif, not used for the fluorescence polarization experiments, is shown in the bottom line.
# Mps1 (137–171), Ipl1 (26–39;45–59), and Dam1 (254–270;290–305) peptides with added C-terminal cysteines, were synthesized by the Tufts University Core Facility. […] Fluorescence polarization was measured at 25°C with an Envision plate reader (Perkin Elmer) equipped with a filter set optimized for fluorescence polarization of FITC, which has the same absorption and emission spectra as those of Bodipy FL. […] Fluorescence polarization was measured in triplicate. […] An equal volume of a buffer-matched solution containing 40 nM Bodipy-FL labelled peptide and 1 μM Ndc80c^dwarf was added to each of the dilutions, and fluorescence polarization was measured in triplicate. […]
# Ndc80c^dwarf [2] = assay: Fluorescence polarization competition, reporter Bodipy-FL Ipl1 (26–39;45–59); type: binding, S. cerevisiae; settings: 20 nM Bodipy-FL Ipl1 (26–39;45–59), 27μM Ndc80c^dwarf; competitor in twofold serial dilutions; 25°C; Figure 3E
# Procedure: as §1, with “(B) Competition binding experiment: unlabeled competitor peptides (see figure annotation) were added in twofold serial dilutions to Bodipy-FL Mps1(137–171) and Ndc80c^dwarf at final concentrations of 20 nM and 500 nM respectively.” left out, “cells.” for “cells. (E) As in (B), but with 20 nM Bodipy-FL Ipl1 (26–39;45–59) as the fluorescent reporter and 27μM Ndc80c^dwarf.”
# We measured the Ipl1 peptide affinity, both directly (Figure 3A) and by measuring displacement of a fluorophore-labeled Mps1 peptide (Figure 3B) as a function of increasing concentrations of unlabeled Ipl1 peptide. […]
# Mps1 (137–171), Ipl1 (26–39;45–59), and Dam1 (254–270;290–305) peptides with added C-terminal cysteines, were synthesized by the Tufts University Core Facility. […] Fluorescence polarization was measured in triplicate. […]
# Sequence of Ndc80c^dwarf (P33895 1-150): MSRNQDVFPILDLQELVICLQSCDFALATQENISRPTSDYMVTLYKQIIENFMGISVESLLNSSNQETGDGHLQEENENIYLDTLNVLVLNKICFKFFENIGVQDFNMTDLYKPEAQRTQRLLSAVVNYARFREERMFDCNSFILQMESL
# Sequence of Ndc80c^dwarf (P40460 115-310, further chain): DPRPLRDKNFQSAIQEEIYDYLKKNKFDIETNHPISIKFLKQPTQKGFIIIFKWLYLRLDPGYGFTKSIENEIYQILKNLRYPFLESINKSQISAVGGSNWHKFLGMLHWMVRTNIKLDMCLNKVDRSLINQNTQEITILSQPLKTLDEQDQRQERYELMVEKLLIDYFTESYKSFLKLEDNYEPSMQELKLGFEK
sequence,measurement,setting,value
"RQNMKEDITAKYAERRSKRFLISNRTTKLGPAKRAC [Mps1 (137–171), peptide comprising Mps1 residues 137–171, plus a C-terminal cysteine for labeling]",displacement of bound Bodipy-FL Mps1(137–171) by unlabeled competitor peptide,"Ndc80c^dwarf [1]; 20 nM Bodipy-FL Mps1(137–171), 500 nM Ndc80c^dwarf, competitor in twofold serial dilutions, 20 mM Tris pH 7.2, 100 mM NaCl, 2 mM TCEP, 25°C, triplicate, Figures 3B,C","displaced the fluorescent Mps1 peptide, at a concentration consistent with the affinity measured by direct titration"
same,relative affinity of peptides for Ndc80c^dwarf (comparison in words),Ndc80c^dwarf [1]; direct titration (Figure 3A) and competition with Bodipy-FL Mps1(137–171) (Figure 3B),nearly the same
same,displacement of Bodipy-FL Ipl1 (26–39;45–59) by unlabeled competitor peptide,Ndc80c^dwarf [2],competed strongly

# From article PMC11847324, “A communication hub for phosphoregulation of kinetochore-microtubule attachment” (Current biology : CB, 2024)
